Measurements reported in patent US10849901B2, “Arf6 inhibitors and methods of synthesis and use thereof” (Navigen, Inc., priority 2014, dated 2020).
“Also recorded” adds a separate entry of the source. Where two headings read alike, the source gives them in different places.

Legend:
[1] = target: Arf6 (Mus musculus (Mouse), UniProt P62331); assay: Arf6 pulldown assay (GTP-bound Arf6, GST-Gga3, Western blot); format: cell-based; conditions: NIH3T3 cells, 4 hours incubation
Experimental: The cell cultures were incubated in the presence of test compounds for 4 hours followed by pull-down of GTP-bound Arf6 from cell lysates using recombinant GST-Gga3 immobilized on glutathione agarose and Western blot analysis.
Arf6 pulldown assay: Assessment of intracellular levels of active Arf6 may be a direct mechanism-based approach for monitoring on-target cellular activities of active Arf6 inhibitors. A commercially available pull-down technique, which relies on recombinant Gga3 protein as a sensor of the GTP-bound state for the members of Arf protein family, can be employed for this purpose (see, e.g., Shiba T, Kawasaki M, Takatsu H, Nogi T, Matsugaki N, Igarashi N, Suzuki M, Kato R, Nakayama K, Wakatsuki S. Molecular mechanism of membrane recruitment of GGA by ARF in lysosomal protein transport. Nat Struct Biol. 2003 May; 10(5):386-93).
The vendor's procedure was modified from 10-cm culture dish to 24-well plate format and adapted to a number of different cell lines, including cultured mouse embryonic fibroblasts NIH 3T3 due to its robust response to Arf6 inhibitors observed in the proof-of-principle studies (see FIG. 2).

[2] = system: LN-229 glioblastoma cells; assay: Cell proliferation assay (WST-8), LN-229; format: cell-based; conditions: concentrations greater than 1 μM
Excerpt: (§1) Cell proliferation assay: This assay employs WST-8 colorimetric readout (Dojindo) and relies on the total activity of mitochondrial dehydrogenases as a measure of the number of viable cells over time.

[3] = system: LPS-induced acute lung injury; assay: LPS-induced acute lung injury in mice (BALF analysis); format: in vivo; conditions: 24 hours after LPS, Compound 38 60 mg/kg, dexamethasone 5 mg/kg
Experimental: In the experiment, LPS (5 mg/kg) was given by intra-tracheal instillation. Dexamethasone (5 mg/kg) was given as a positive control 2 hours after the LPS. Bronchoalveolar fluid (BALF) was analyzed for cell count and protein 24 hours after the LPS.

[4] = system: oxygen-induced retinopathy; assay: Oxygen-induced retinopathy (OIR) in mice; format: in vivo; conditions: 5 μg intraocular Days 12 and 15, measured Day 17
Experimental: In the experiment, mice pups were placed in a 75% oxygen environment from Days 5-12. The mice were returned to a normal oxygen environment on Day 13. The test compounds were administered (5 μg) by intraocular injection on Days 12 and 15, and the area of neovascularization was measured on Day 17. Compound 38 was compared with SU4312 in oxygen-induced retinopathy (OIR) in mice (see FIG. 11). […]

[5] = system: VEGF-induced retinal permeability; assay: VEGF-induced retinal permeability in rats (Evans blue dye); format: in vivo; conditions: rats; Compound 38 60 mg/kg IP, Avastin 200 μg intraocular (FIG. 8)
Experimental: In the experiment, VEGF (500 ng) and Avastin (200 μg) were given to rats in a single intraocular injection on Day 1. Compound 38 (60 mg/kg) was administered by IP injection 1 hour prior to VEGF on Day 1. Rats were given Evans blue dye (EBD) via IV infusion on Day 2, and the retinas were harvested after an additional 1.5 hours. The retinas were dissected and incubated overnight in formamide. Vascular leak was calculated on Day 3.

[6] = system: VEGF-induced retinal permeability; assay: VEGF-induced retinal permeability in mice (Evans blue dye); format: in vivo; conditions: mice
Experimental: (§2) In the experiment, VEGF (50 ng) and either Compound 38 or 65 (500 ng) or NAV-3745 (500 ng) were given to mice in a single intraocular injection. Evans blue dye (EBD) was given via IV approximately 6 hours after the injection, and the retinas were harvested after an additional 2 hours. Retinal permeability was measured on Day 2 after an overnight extraction of EBD in formamide, at OD 620-740 nm.
as §2, with “the test compound” for “either Compound 38 or 65 (500 ng) or NAV-3745 (500 ng)”, “injection. Avastin was given at a dose of 20 μg, Compound 38 at either 50 ng or 500 ng (as noted in FIG. 7), and SU4312 at 5 μg. As with the previous experiment,” for “injection.”

[7] = target: Arf6 (Homo sapiens (Human), UniProt P62330); assay: Fluorometric assay for Arf6 nucleotide exchange catalyzed by ARNO Sec7 domain (GTP-BODIPY FL); format: biochemical
Arf6 (Homo sapiens (Human), UniProt P62330), sequence (P62330 14-175): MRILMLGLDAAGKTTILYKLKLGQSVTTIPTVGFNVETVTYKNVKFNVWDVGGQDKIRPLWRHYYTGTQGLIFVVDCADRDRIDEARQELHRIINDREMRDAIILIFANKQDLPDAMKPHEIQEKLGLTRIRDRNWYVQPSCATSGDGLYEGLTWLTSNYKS

[8] = system: Choroidal Neovascularization (CNV); assay: Laser-induced choroidal neovascularization (CNV) in mice; format: in vivo; conditions: 5 μg, 0.5 μg and 0.05 μg on Days 0 and 7, measured Day 14
Experimental: In the experiment on Day 0, the Bruch's membrane of each eye was disrupted with a laser. On Days 0 and 7, test compounds were administered, and on Day 14, the area of CNV was measured. Commercially available compound SU4312 was used as a positive control. Compound 38 was dosed at 5 μg, 0.5 μg, and 0.05 μg, as noted in FIG. 9.

[9] = system: LOX melanoma cells; assay: Cell invasion assay (Matrigel Invasion Chambers); format: cell-based
Excerpt: Cell invasion assay: This assay uses Matrigel Invasion Chambers (BD Biosciences) and monitors cell penetration through 8.0 μm filters coated with a solubilized basement membrane matrix, which serves as barrier for non-invading cells (see, e.g., Albini A, Iwamoto Y, Kleinman H K, Martin G R, Aaronson S A, Kozlowski J M, McEwan R N. A rapid in vitro assay for quantitating the invasive potential of tumor cells. Cancer Res. 1987 Jun. 15; 47(12):3239-45).

[10] = system: LOX melanoma cells; assay: Cell proliferation assay (WST-8), LOX; format: cell-based; conditions: concentrations greater than 1 μM
Excerpt: as §1

[11] = system: H1N1 virus; conditions: IP QD five days; Compound 65 20 mg/kg, ribavirin 75 mg/kg
[12] = 500 ng single intraocular injection with VEGF 50 ng (FIG. 6)
[13] = 20 nM Arf6 assay, read-out: IC50 (μM) 20 nM Arf6
[14] = 200 nM Arf6 assay, read-out: IC50 (μM) 200 nM Arf6

Arf6 (Mus musculus (Mouse), UniProt P62331), sequence (P62331 whole entry): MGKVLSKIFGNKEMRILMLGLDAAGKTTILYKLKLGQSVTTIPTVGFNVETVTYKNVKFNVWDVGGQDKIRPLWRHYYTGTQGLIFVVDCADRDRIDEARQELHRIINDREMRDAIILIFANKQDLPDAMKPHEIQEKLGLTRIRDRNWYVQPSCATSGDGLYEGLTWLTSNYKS

Structure (SMILES) | Inhibition of Arf6 activation (GTP-bound Arf6) [1] | inhibition of LN-229 cell proliferation [2] | number of cells in the lung fluid (BALF) [3] | protein concentration in the lung fluid (BALF) [3] | area of neovascularization [4] | VEGF-induced retinal permeability [5] | VEGF-induced retinal permeability [6, 12] | VEGF-induced retinal permeability ([6]; single intraocular injection, Compound 38 50 ng or 500 ng, Avastin 20 μg, SU4312 5 μg (FIG. 7)) | IC50 [7, 13] | IC50 [7, 14] | area of CNV [8] | FBS-induced LOX cell invasion through Matrigel ([9]; 1 μM) | inhibition of melanoma cell invasion ([9]; LOX melanoma cells) | inhibition of LOX cell proliferation [10] | mortality of mice infected with H1N1 virus [11]
O=c1cc(-c2ccc([N+](=O)[O-])cc2)[nH]c2c(-c3ccc(Cl)cc3)c(Cc3ccccc3)nn12 [Compound 38] | Inhibition of Arf6 activation | can inhibit proliferation; also recorded: potent inhibitor | reduced the number of cells | reduced | reduced the area of neovascularization | reduced VEGF-induced retinal permeability | reduced VEGF-induced retinal permeability | reduced VEGF-induced retinal permeability | 1.8 µM | 1.4 µM | reduced the area of CNV in a dose-dependent manner | substantially inhibit, or completely inhibit | can inhibit invasion; also recorded: more potent inhibitor of melanoma cell invasion than SecinH3 | can inhibit proliferation; also recorded: potent inhibitor | –
O=c1cc(Cc2ccccc2)[nH]c2c(-c3ccc(Cl)cc3)c(C(F)(F)F)nn12 [Compound 65] | – | – | – | – | – | – | reduced VEGF-induced retinal permeability | – | 3.7 µM | 4.9 µM | – | – | – | – | reduced the mortality of mice nearly as well as ribavirin
